Each structure is given as a SMILES string.

For orientation: AUC means concentration integrated over time. One may read the EC50 as the concentration needed to bring the measured effect to its halfway point.

One data set deals with BT-549 TNBC cells. Nature of the data set: Western blot and cGAS/γH2A.X immunostaining (Example 8). The format is cell-based, human. Conditions: 0.2 μM, 48 hours. As to the method: In order to analyze the effects on mitosis, BT-549 TNBC cells were seeded into 6-well plates at a density of 100,000 per well in 3 replicate wells in 4 mL of complete growth media. The next day, cells were treated with DMSO, KIF18A inhibitor #1 (Compound C11, 0.5 μM), or KIF18A inhibitor #2 (Compound C9, 0.01 μM) in 4 mL of complete media at a final DMSO concentration of 0.5%. After 48 hours, cell lysates were prepared for each treatment group (combined media and cells from 3 wells) using Minute™ Total Protein Extraction kit (SD-001, Invent Biotechnologies) lysis conditions according to manufactures protocol, supplemented with protease inhibitor cocktail (cOmplete™, Roche) and phospatase inhibitors (PhosphoStop, Roche). Primary antibodies included rabbit anti-p-Histone H3 (serine-10) (06-570, Millipore, 1: 2000), mouse anti-γH2A.X (serine-139) (05-636, Millipore, 1: 2000), mouse anti-cleaved-PARP (cl-PARP) (#51-900017, BD Pharmingen, 1:500), mouse anti-BubR1 (612503, BD Pharmingen, 1:5000), mouse anti-total HEC1 (ab3613, ABCAM, 1: 1000), rabbit anti-pHEC1(serine-55) (GTX70017, Genetex, 1: 500), and rabbit anti-GAPDH (2118, Cell Signaling, 1:10,000).
Also, cGAS and γH2A.X (serine-139) immunostaining in BT-549 TNBC cells was carried out. […] Wide-field images were captured using 40×objective on upright Nikon Eclipse NI-E epi-fluorescence microscope running Elements software.
In general terms: Immunoblotting shows a protein as a band on a membrane.

The nature of data set [1]: Terminal plasma pharmacokinetic analysis in tumor-bearing mice. The format is in vivo, mouse. The protocol:
Data was graphed using GraphPad Prism 7.05.
Tumor volume and body weight assessment performed as described above. After the final dose on day 36, plasma pharmacokinetic analysis was performed as described above. All data analysis was performed as described above.
Animals were dosed IP daily with vehicle alone, C9 (50 or 100 mg/kg), or C12 (25 or 50 mg/kg). […] Tumor volume and body weight assessment performed as described above. After the final dose on day 46, plasma pharmacokinetic analysis was performed as described above except blood was drawn by retro-orbital bleed method.

For data set [2], the system named is p-Histone H3 in OVCAR-3 HGSOC tumor xenografts. Nature of the data set: Tumor pharmacodynamic p-Histone H3 MSD assay. The format is in vivo, mouse. The settings on record: 3, 10, 30, 100 mg/kg; tumor collected 24 hours post-treatment.
Experimental: Female athymic nude mice were injected with 5×10^6 OVCAR-3 cells in 0.1 mL subcutaneously in the right flank. After tumors were established (average tumor volume of 450 to 750 mm^3), animals were randomized into 5 treatment groups (vehicle alone, KIF18A inhibitor at 3, 10, 30, or 100 mg/kg) with 3 animals per group. Tumor and blood plasma were collected 24 hours post-treatment for pharmacokinetic analysis and tumor for pharmacodynamic analysis. Preparations of tumor protein lysates from snap frozen, pulverized, and lysed and processed using EpiQuik Total Histone Extraction Kit (OP-0006 Epigentek, Farmingdale, N.Y.) protocol. […] Lysates normalized for total protein per well were loaded onto Meso Scale Discovery (MSD) electrochemiluminescent immunoassay plates at 30 μg/well in lysis buffer a processed of pHH3 MSD analysis according to the manufacturer's protocol for the single-plex MSD assays using phospho-Histone H3 (serine-10) antibody (pHH3) and analyzed on a Sector Imager S16000 luminescence detection reader (MSD, Gaithersburg, Md.). Lysates were normalized for total protein and pHH3 fold induction represents the group average raw MSD value divided by the average raw MSD value of the vehicle treated group. […] The fold induction in pHH3 is noted for each KIF18A inhibitor treatment group relative to mean baseline pHH3 signal for vehicle group. […]
The test system of data set [3] is human OVCAR-8 HGSOC xenograft model (TP53MUT, BRCA1silenced). Nature of the data set: OVCAR-8 xenograft efficacy study, oral dosing (Example 4). The format is in vivo, mouse. As to the method:
Female athymic nude mice were injected with 5×10^6 OVCAR-8 cells in 0.1 mL subcutaneously in the right flank. […] Tumor volume and animal body weight measurements were determined twice per week (study start day 25, study end day 47). Tumor measurements, formulas, and regression analysis as described above for FIGS. 5A-5B. Data was plotted using GraphPad Prism software (V7.0.4), tumor volume and body weight data are expressed as means plus or minus standard error of the mean and plotted as a function of time. Statistical significance of observed differences between growth curves were calculated using SLACR package (v.1.0.3).

For data set [4], the system named is panel of cancer cell lines including breast cancer cell lines, ovary cancer cell lines, and a prostate cancer cell line. Put plainly: 4-day image-based nuclear count assay (NCA), cancer cell line panel. Further details: species or system human. As to the method:
Eg5 motor inhibitor (Ispinesib) was used as a cytotoxic control. […] Cancer cell lines were seeded in a Corning 96-well Flat Clear Bottom Black Polystyrene plate (Corning, N.Y.) in 100 μL of appropriate complete media at the appropriate density and grown for 24 hours. In one set of experiments, in preparation for cell treatment, a 2× concentration of one of: […] The compound was added to the cells with a final volume of 200 μL in complete media containing 0.5% DMSO. After 4 days (96 hours) or 6 days (144 hours) of treatment, the cells were fixed by removing 100 μL of complete media from each well and replacing it with 100 μL of 2×formaldehyde (final 4%) and incubating the plates for 15 minutes at room temperature. After fixation, the cells were permeabilized and stained in 200 μL Wash Buffer (1% BSA, 0.2% Triton X-100, 1×PBS) containing 2 μg/mL Hoechst 33342 DNA dye. The plates were sealed and incubated for 1 hour at room temperature in the dark. Cells were stored at 4° C. in the dark until data acquisition. Imaging data was acquired on Cellomics ArrayScan VTI HCS Reader (SN03090745F, ThermoFisher Scientific) using the Target Activation V4 Assay protocol (Ve 6.6.0 (Build 8153) with a 10×objective, collected 16-fields per well). […] A Mean Count EC50 value (±SD) across all sensitive cell lines was determined for each test agent.

Consider `CC(C)(C)NS(=O)(=O)c1cccc(NC(=O)c2ccc(S(=O)(=O)NC(C)(C)C)cc2N2CCC3(CC2)CC3)c1` [Compound C9, 4-(N-(tert-butyl)sulfamoyl)-N-(3-(N-(tert-butyl)sulfamoyl)phenyl)-2-(6-azaspiro[2.5]octan-6-yl)benzamide], for which the “cGAS and γH2A.X staining of cytoplasmic micronuclei” value in the data set on BT-549 TNBC cells is “increase in DNA damage and cGAS positive micronuclei”. In data set [1] (OVCAR-3, CAL-51, OVCAR-8 studies), the “PK profiles across studies” value is “comparable across studies”. Moreover, the AUC in data set [1] (nude, mouse, plasma, OVCAR-3 study, 100 mg/kg IP, after the final dose) turned out to be 130 µM·h.

For the molecule `Cc1cc(NC(=O)c2ccc(NS(=O)(=O)CCO)cc2N2CCC3(CC2)CC3)nc(N2CCC(F)(F)CC2)n1` [Compound C14, N-(2-(4,4-Difluoropiperidin-1-yl)-6-methylpyrimidin-4-yl)-4-((2-hydroxyethyl)sulfonamido)-2-(6-azaspiro[2.5]octan-6-yl)benzamide], the “p-Histone H3 mitotic marker levels in tumor” value in data set [2] is “dose-dependent increase”. Besides, in data set [3] (10 mg/kg PO QD, day 25 to day 47), the “tumor growth inhibition (TGI)” value is on record as 57%. Also, the tumor-free animals in data set [3] (30 mg/kg PO QD) is reported as 4 of 10; in data set [3] (100 mg/kg PO QD), 8 of 10. Further, the tumor regression is reported as 86% in data set [3] (30 mg/kg PO QD, day 25 to day 47) and 98% in data set [3] (100 mg/kg PO QD, day 25 to day 47). For the same molecule, the midpoint of the response in data set [4] (Homo sapiens, 96 h, mean across the seven sensitive (TP53 mutant) of twelve cell lines, SD ±0.008), the EC50, lay at 0.0563 µM. Further, in data set [4] (five Rb-proficient lines: CAL-51, ZR-75-1, MCF-7, OVCAR-5 (TP53 WT), MDA-MB-453 (TP53 NULL)), the “sensitivity in nuclear count assay” value is reported as “insensitive (if the Span did not exceed >50%, the cell line was considered insensitive)”.

Values taken from patent US20230151432A1, “KIF18A INHIBITORS FOR TREATMENT OF NEOPLASTIC DISEASES” (AMGEN INC., priority 2020, published 2023).
